Measurements as given in US20260373164A1, “4(RS)-4-F4-NEUROPROSTANE DERIVATIVES (4-F4T-NEUROP) AND THEIR USE IN TREATING VENTILATOR INDUCED DIAPHRAGMATIC DYSFUNCTION AND OTHER DISEASES” (INSTITUT NATIONAL DE LA SANTÉ ET DE LA RECHERCHE MÉDICALE, priority 2022, published 2026).
Entries after “also recorded” stand apart in the source; their conditions may differ.

Assays:
[1] = test system: ventricular myocytes (type 2 ryanodine receptor); assay: Anti-arrhythmic properties in isolated ventricular myocytes (calcium transients and cell contraction, IonOptix); format: cell-based, murine; details: 10 nM isoproterenol; for anti-arrhythmic properties (ryanodine dependent arrhythmic cells): VB574 10 nM, 100 nM or 1 μM, compound IV 1 μM, 1 Hz stimulation
Procedure: Compounds 20,21,22-trinor-4(RS)-4-F4t-NeuroP (compound of Formula III, VB574) and monohydroxylated derivative of 4-F4t-NeuroP (Compound IV) were evaluated for their anti-arrhythmic properties. Calcium transients and cell contraction was measured by the photometric system ionOptix®.
The photometric system IonOptix® can provide real-time, simultaneous acquisition of fluorescence photometry with sarcomere length measurements. For the study of isolated myocytes, the system includes a pacemaker that offers full control of the stimulation pulse duration, the frequency and the voltage. Thus, the photometric system IonOptix® puts in correlation the calcium transients and the shortening of the electrically stimulated myocytes (1 Hz, 20 V, FIG. 7). Calcium was studied by the use of a ratiometric fluorescent calcium probe (indo-1-AM, excitation wavelength 360±10 nm, emission wavelength at 405±10 nm and 485±10 nm).
To measure the intracellular calcium, the first step was to bring ventricular myocytes load into contact with an amount of indo-1-AM. To make it liposoluble, indo-1 was esterified on its carboxylic functions to give indo-1-AM. Once present in the cell, esterases allow the release of Indo-1 carboxylic functions enabling it to bind to the intracellular calcium. The incorporation time was predetermined to 30 minutes. This time was chosen following experiments using different times of incubation and 30 minutes was the time giving a good ratio/noise ratio and no obvious perturbation of cellular calcium homeostasis. The incubation time of the probe is critical because too low load generates a weak signal while excessive exposure will excessively increase the buffering capacity of the cytoplasm for calcium.
Once loaded and the cells arranged on the measuring system by means of a tank containing Tyrode salt solution (450 μL), the probe was excited by a xenon lamp at a wavelength of 360 nm. Through an optical wavelength filter, the apparatus collects the fluorescence emitted from the Indo-1 at two different wavelengths: 405±10 nm and 485±10 nm. The first wavelength represents the fluorescence of the probe bound to calcium and the second wavelength represents the fluorescence of the free probe. The ratio of these two wavelengths reflects the concentration of intracellular calcium. It is thus possible to observe calcium transients in ventricular myocytes systole but also to observe the diastolic calcium when the stimulation is stopped.
To measure the contraction, striation of cardiac cells due to the presence of sarcomeres was used. […] The recorded signal is similar to a sine function. […]
Thus, to evaluate the potential RyR stabilizing effect of the 4-F4T-neuroprostane derivatives (compounds III and IV), the compounds were applied, and the percentage of arrhythmic cells was measured.

RyR2 = details: previously reported (ref. 21); cited from earlier work

Which amplitude of contractions [1] does the source give for CC(C)NCC(O)c1ccc(O)c(O)c1 (centres unmarked) [isoproterenol] here?
The amplitude of contractions was “increase in the amplitude of contractions”.

What about the “extrasystole ventricular contraction (ESV)” value [1] of the same compound?
The value was “promotes the development of ESV; also recorded: promote the development of ExtraSystole Ventricular contraction (ESV)”.

Which “anti-arrhythmic properties (ryanodine dependent arrhythmic cells)” value [1] does the source give for CC/C=C\C/C=C\C[C@@H]1[C@H](/C=C/C(O)CCC(=O)O)[C@@H](O)C[C@H]1O (mixture of isomers) [compound III, (E)-6-((1S,2R,3R,5S)-3,5-dihydroxy-2-((2Z,5Z)-octa-2,5-dien-1-yl)cyclopentyl)-4-hydroxyhex-5-enoic Acid] here?
The value was “show anti-arrhythmic properties indicative of an interaction with the RyR”.

Which “cardiac anti-arrhythmic effect, RyR2 stabilization” value (RyR2) does the source give for CC/C=C\C/C=C\C/C=C\C/C=C\C/C=C\C/C=C\CCC(=O)O [DHA, docosahaenoic acid] here?
Its value is “could exert a cardiac anti-arrhythmic effect due to a stabilization of the cardiac isoform of ryanodine receptor, RyR2”.

For CC/C=C\C/C=C\C/C=C\C[C@H]1CC[C@H](O)[C@H]1/C=C/C(O)CCC(=O)O (some centres unmarked) [compound IV], which “anti-arrhythmic properties (ryanodine dependent arrhythmic cells)” value [1] is on record?
Its value is “show anti-arrhythmic properties indicative of an interaction with the RyR”.
